# Data: article PMC6958329, “New ^55Co-labeled Albumin-Binding Folate Derivatives as Potential PET Agents for Folate Receptor Imaging” (Pharmaceuticals, 2019)
# Where “and” joins values, the source holds several entries; their conditions need not be identical. Equal entries are not always repeated.
# System: KB tumor bearing mice
# Assay: In vivo biodistribution in KB tumor bearing mice
# Conditions: for Biodistribution, Tumor: KB tumor; for Biodistribution, Tumor / Biodistribution, Blood / Biodistribution, Bone / Biodistribution, Brain / Biodistribution, Fat / Biodistribution, Heart / Biodistribution, Intestine / Biodistribution, Kidney / Biodistribution, Liver / Biodistribution, Lungs / Biodistribution, Muscle / Biodistribution, Pancreas / Biodistribution, Skin / Biodistribution, Spleen / Biodistribution, Stomach: n = 4
# Protocol: The in vivo behavior of each ^55Co-labeled folate was evaluated in KB-tumor bearing mice via biodistribution studies and PET/CT imaging. The biodistribution data are presented in Table 3 and Table 4, and are reported as the percent of injected activity per gram of tissue (% IA/g). Statistically significant differences in renal uptake between the two ^55Co-labeled compounds were observed. At 4 h post-injection, the radiofolates had uptake values in the kidneys of 36% ± 7% IA/g for [^55Co]Co-cm10 and 53% ± 12% IA/g for [^55Co]Co-rf42. […] Lower renal uptake for [^55Co]Co-cm10 may in part be due to slightly higher lipophilicity (supported by its larger molecular weight and a longer HPLC-retention time) in comparison to [^55Co]Co-rf42. […] Despite the differences in blood retention, tumor uptake for both radiofolates was similar with values of 17% ± 2% IA/g for [^55Co]Co-cm10 and 17% ± 4% IA/g for [^55Co]Co-rf42 at 4 h post-injection. […] The PET/CT images (presented as maximal intensity projections) confirm the biodistribution findings, highlighting the kidneys and tumors as the tissues with the highest activity uptake (Figure 5).
# All animal studies were performed using a protocol approved by the Institutional Animal Care and Use Committee at the University of Alabama at Birmingham and were in compliance with national animal welfare policies and guidelines. Female athymic nude mice (Charles River, Wilmington, MA, USA), age 5 weeks, were implanted with KB cells via subcutaneous injection of 5 × 10^6 cells in 100 μL of PBS in the right shoulder. Tumors were allowed to grow for 12 days, during which time mice were fed Teklad Folic Acid Deficient Diet (Envigo, Huntingdon, United Kingdom).
# Biodistribution and imaging studies for [^55Co]Co-cm10 and [^55Co]Co-rf42 were performed at 4 h and 24 h post-injection on groups of four mice. An additional cohort of mice was co-injected with a blocking dose of folic acid (100 μg), and biodistribution was performed at 4 h post-injection. At 2 h, mice were induced using 3% isoflurane and a 50 μL blood sample was taken retro-orbitally to monitor blood activity at an early time point.
# The radiofolates were prepared as described with final molar activities of 835.5 MBq/μmol (22.6 mCi/μmol) for [^55Co]Co-cm10 and 957.6 MBq/μmol (25.9 mCi/μmol) for [^55Co]Co-rf42 in 60 μL reaction volume. Injections (100 µL) were prepared by dilution of the radiofolates in sterile saline (pH = 7). The final [^55Co]Co-cm10 injection contained 1,924 kBq (52 μCi) and 2.3 nmol cm10 and the final [^55Co]Co-rf42 injection contained 2,479 kBq […] and 2.4 nmol rf42. Blocking doses contained an additional 100 µg of folic acid and were prepared by diluting the radiofolates with 1 μg/μL folic acid in sterile saline (pH adjusted to 7). Mice were euthanized humanely by cervical dislocation following anaesthetization with 3% isoflurane, and their organs were collected, weighed and counted using an automatic gamma counter.
# [1] = 4 h, co-administration of 100 µg folic acid blocking dose
structure (smiles),measurement,setting,value
Nc1nc2ncc(CNc3ccc(C(=O)N[C@@H](CCC(=O)NC(CCCCNC(=O)CN4CCN(CC(=O)O)CCN(CC(=O)O)CCN(CC(=O)O)CC4)C(=O)NC(CCCCNC(=O)CCCc4ccc(I)cc4)C(=O)O)C(=O)O)cc3)nc2c(=O)[nH]1.[55Co] (stereo partly shown) [[^55Co]Co-cm10],"Biodistribution, Tumor",[1],8 ± 4 % IA/g
same,"Biodistribution, Blood",[1],17 ± 3 % IA/g
same,"Biodistribution, Bone",[1],2.2 ± 0.8 % IA/g
same,"Biodistribution, Brain",[1],0.6 ± 0.2 % IA/g
same,"Biodistribution, Fat",[1],4 ± 1 % IA/g
same,"Biodistribution, Heart",[1],4.2 ± 0.7 % IA/g
same,"Biodistribution, Intestine",[1],2.3 ± 0.4 % IA/g
same,"Biodistribution, Kidney",[1],16 ± 4 % IA/g
same,"Biodistribution, Liver",[1],3.5 ± 0.5 % IA/g
same,"Biodistribution, Lungs",[1],7 ± 3 % IA/g
same,"Biodistribution, Muscle",[1],2.1 ± 0.7 % IA/g
same,"Biodistribution, Pancreas",[1],2.4 ± 0.7 % IA/g
same,"Biodistribution, Skin",[1],5 ± 1 % IA/g
same,"Biodistribution, Spleen",[1],2.2 ± 0.4 % IA/g
same,"Biodistribution, Stomach",[1],1.5 ± 0.1 % IA/g
same,"Biodistribution, Blood",4 h post-injection,14 % IA/g and 13.8 ± 0.8 % IA/g
same,"Biodistribution, Bone",4 h post-injection,1.8 ± 0.6 % IA/g
same,"Biodistribution, Brain",4 h post-injection,0.8 ± 0.1 % IA/g
same,"Biodistribution, Fat",4 h post-injection,5 ± 1 % IA/g
same,"Biodistribution, Heart",4 h post-injection,4.7 ± 0.6 % IA/g
same,"Biodistribution, Intestine",4 h post-injection,1.9 ± 0.3 % IA/g
same,"Biodistribution, Liver",4 h post-injection,3.7 ± 0.6 % IA/g
same,"Biodistribution, Lungs",4 h post-injection,5.4 ± 0.6 % IA/g
same,"Biodistribution, Muscle",4 h post-injection,2.4 ± 0.9 % IA/g
same,"Biodistribution, Pancreas",4 h post-injection,2.4 ± 0.7 % IA/g
same,"Biodistribution, Skin",4 h post-injection,6 ± 2 % IA/g
same,"Biodistribution, Spleen",4 h post-injection,2.0 ± 0.4 % IA/g
same,"Biodistribution, Stomach",4 h post-injection,0.8 ± 0.2 % IA/g
same,"Biodistribution, Blood",24 h post-injection,2.6 ± 0.3 % IA/g
same,"Biodistribution, Bone",24 h post-injection,0.8 ± 0.2 % IA/g
same,"Biodistribution, Brain",24 h post-injection,0.45 ± 0.08 % IA/g
same,"Biodistribution, Fat",24 h post-injection,3 ± 2 % IA/g
same,"Biodistribution, Heart",24 h post-injection,1.7 ± 0.2 % IA/g
same,"Biodistribution, Intestine",24 h post-injection,0.92 ± 0.08 % IA/g
same,"Biodistribution, Kidney",24 h post-injection,30 ± 2 % IA/g
same,"Biodistribution, Liver",24 h post-injection,1.9 ± 0.3 % IA/g
same,"Biodistribution, Lungs",24 h post-injection,1.9 ± 0.3 % IA/g
same,"Biodistribution, Muscle",24 h post-injection,1.3 ± 0.3 % IA/g
same,"Biodistribution, Pancreas",24 h post-injection,1.4 ± 0.2 % IA/g
same,"Biodistribution, Skin",24 h post-injection,7 ± 3 % IA/g
same,"Biodistribution, Spleen",24 h post-injection,1.0 ± 0.1 % IA/g
same,"Biodistribution, Stomach",24 h post-injection,0.34 ± 0.09 % IA/g
Nc1nc2ncc(CNc3ccc(C(=O)N[C@@H](CCC(=O)NC(CCCCNC(=O)CCC(C(=O)O)N4CCN(CC(=O)O)CCN(CC(=O)O)CC4)C(=O)NC(CCCCNC(=O)CCCc4ccc(I)cc4)C(=O)O)C(=O)O)cc3)nc2c(=O)[nH]1.[55Co] (stereo partly shown) [[^55Co]Co-rf42],"Biodistribution, Tumor",[1],7 ± 2 % IA/g
same,"Biodistribution, Blood",[1],15 ± 2 % IA/g
same,"Biodistribution, Bone",[1],1.7 ± 0.5 % IA/g
same,"Biodistribution, Brain",[1],0.5 ± 0.1 % IA/g
same,"Biodistribution, Fat",[1],2.7 ± 0.6 % IA/g
same,"Biodistribution, Heart",[1],4 ± 1 % IA/g
same,"Biodistribution, Intestine",[1],2.2 ± 0.3 % IA/g
same,"Biodistribution, Kidney",[1],12 ± 4 % IA/g
same,"Biodistribution, Liver",[1],4 ± 1 % IA/g
same,"Biodistribution, Lungs",[1],5.6 ± 0.3 % IA/g
same,"Biodistribution, Muscle",[1],1.5 ± 0.3 % IA/g
same,"Biodistribution, Pancreas",[1],2.2 ± 0.2 % IA/g
same,"Biodistribution, Skin",[1],3.5 ± 0.8 % IA/g
same,"Biodistribution, Spleen",[1],2.1 ± 0.3 % IA/g
same,"Biodistribution, Stomach",[1],1.1 ± 0.5 % IA/g
same,"Biodistribution, Blood",4 h post-injection,8 % IA/g and 8 ± 3 % IA/g
same,"Biodistribution, Bone",4 h post-injection,1.3 ± 0.2 % IA/g
same,"Biodistribution, Brain",4 h post-injection,0.7 ± 0.1 % IA/g
same,"Biodistribution, Fat",4 h post-injection,3.2 ± 0.9 % IA/g
same,"Biodistribution, Heart",4 h post-injection,2.9 ± 0.4 % IA/g
same,"Biodistribution, Intestine",4 h post-injection,2.2 ± 0.5 % IA/g
same,"Biodistribution, Liver",4 h post-injection,3.8 ± 0.6 % IA/g
same,"Biodistribution, Lungs",4 h post-injection,4 ± 1 % IA/g
same,"Biodistribution, Muscle",4 h post-injection,1.6 ± 0.4 % IA/g
same,"Biodistribution, Pancreas",4 h post-injection,2.4 ± 0.5 % IA/g
same,"Biodistribution, Skin",4 h post-injection,8 ± 1 % IA/g
same,"Biodistribution, Spleen",4 h post-injection,1.5 ± 0.3 % IA/g
same,"Biodistribution, Stomach",4 h post-injection,0.8 ± 0.4 % IA/g
same,"Biodistribution, Blood",24 h post-injection,1.0 ± 0.4 % IA/g
same,"Biodistribution, Bone",24 h post-injection,0.6 ± 0.2 % IA/g
same,"Biodistribution, Brain",24 h post-injection,0.4 ± 0.1 % IA/g
same,"Biodistribution, Fat",24 h post-injection,2.7 ± 0.2 % IA/g
same,"Biodistribution, Heart",24 h post-injection,2.0 ± 0.4 % IA/g
same,"Biodistribution, Intestine",24 h post-injection,0.8 ± 0.2 % IA/g
same,"Biodistribution, Kidney",24 h post-injection,46 ± 14 % IA/g
same,"Biodistribution, Liver",24 h post-injection,2.9 ± 0.5 % IA/g
same,"Biodistribution, Lungs",24 h post-injection,1.5 ± 0.4 % IA/g
same,"Biodistribution, Muscle",24 h post-injection,1.2 ± 0.6 % IA/g
same,"Biodistribution, Pancreas",24 h post-injection,1.9 ± 0.3 % IA/g
same,"Biodistribution, Skin",24 h post-injection,6 ± 2 % IA/g
same,"Biodistribution, Spleen",24 h post-injection,0.6 ± 0.2 % IA/g
same,"Biodistribution, Stomach",24 h post-injection,0.5 ± 0.2 % IA/g
same,tumor-to-kidney ratio,"compared with [^64Cu]Cu-rf42 and [^68Ga]Ga-rf42, Figure 6",lowest
